The test system of data set [1] is cell lines that have wild-type BRAF and RAS. Description: Anti-proliferative activity in wild-type BRAF and RAS cell lines. Format: cell-based. Conditions: Homo sapiens, read-out: IC50, inhibition of proliferation.
Data set [2] relates to 456 kinases. As to the kind of experiment: Kinase binding selectivity panel. Conditions: out of 456 kinases tested.
Data set [3] in a line: Anti-proliferative activity in cancer cell lines with MAPK-activating mutations. Format: cell-based. Conditions: Homo sapiens; range over A-375, A-375 with BRAFi/MEKi resistance alleles, MEL-JUSO, IPC-298, Calu-6; read-out: IC50, inhibition of proliferation.
In data set [4] the test system is EGFR mutant NSCLC cell lines HCC4006, HCC827, PC9, MGH707. As to the kind of experiment: Short-term viability assay (CellTiter-Glo, 5 days). Format: cell-based. As for the experimental part:
FIG. 1A and FIG. 1B: Dose response curves in EGFR mutant NSCLC cell lines (FIG. 1A: HCC4006 and HCC827 cell lines. FIG. 1B: PC9 and MGH707 cell lines). for Compound B in the presence of DMSO (curves at the top of Figures) or 300nM EGF816 (“Cmpd A”-curves at the bottom of Figures). % Activity is a measure of cell number as read out by cell-titer glo. 0 represents the CTG value at Day 0 and 100 represents the value of untreated growth at day 5.
The potential efficacy of adding a MAPK pathway inhibitor such as Compound B to a third-generation EGFR tyrosine kinase inhibitor such as EGF816 in EGFR mutant NSCLC was assessed as follows. A panel of EGFR mutant NSCLC cell lines was treated with a fixed dose (300 nM) of
EGF816 (“Compound A”) or DMSO in combination with Compound B across a 10-dose range for 5 days.
PC9, HCC827, HCC4006, NCI-H1975 and MGH707 are all EGFR mutant NSCLC cell lines sensitive to EGF816. PC9, HCC827, HCC4006 and NCI-H1975 were obtained from the cancer cell line encyclopedia (CCLE) database. MGH707 were obtained from Massachusetts General Hospital. All cell lines were maintained in RMPI media supplemented with 10% fetal bovine serum.
Compound A (EGF816) and Compound B were all re-suspended in DMSO at a concentration of 10 mM for a stock solution and further diluted for the experiments as indicated.
The following EGFR mutant (EGFR mt) NSCLC cell lines were plated at the following densities: HCC827 (exon 19 deletion, or ex19del for short) (500/well), HCC4006 (ex19del) (500/well), PC9 (ex19del)(500/well), and MGH707 parental (1000/well) into white 384-well plates (#3707, Corning, Oneonta, N.Y., USA) and stored in an incubator overnight at 37° C., 95% relative humidity, and 5% CO2. Compounds were serial diluted (1:3 dilution) in DMSO in an acoustic plate (#P-05525, Labcyte, San Jose, Calif., USA) using a Biomek liquid handler (Beckman, Indianapolis, Ind., USA). Compound A was dispensed into the first row of a Labcyte P-05525 source plate. The compound plates were then used to deliver combinations to assay plates using an acoustic dispenser (Echo-555, Labcyte, San Jose, Calif., USA). Each dispense was 50 nL which achieved a 1:1000 dilution (ie. 50 nL dispense of a 10 mM compound becomes 10 uM in 50 uL of cell solution). The combination treatment included a second dispense of 50 nL of Compound A to achieve a final concentration of 0.3 uM. Upon completion of dosing each assay plate was returned to an incubator (37° C., 95% relative humidity, and 5% CO2). 25 uL/well of CellTiter-Glo One Solution cell viability reagent (#G8462, Promega, Madison, Wis., USA) was added to an untreated plate of each cell line using a bulk dispenser (EL406, Biotek, Winooski, Vt., USA) and after 20 minutes of incubation at room temperature, the plates were read on a microplate reader (Envision, Perkin Elmer, Hopkington, Mass., USA). […] After 5 days of incubation, the assay plates are read using the same CellTiter-Glo assay reagent and read on the Envision microplate reader.
(In general: ATP-based viability assays read luminescence as a measure of living cells.)

Data set [5] addresses BRAF kinase (Homo sapiens, UniProt P15056). As to the kind of experiment: BRAF kinase inhibition. Format: biochemical.
The subject of data set [6] is CYP3A4/5. As to the kind of experiment: CYP3A4/5 inhibition. Format: in vitro ADME.
Data set [7] has as its system EGFR mutant NSCLC cell lines HCC4006, HCC827, PC9, MGH707. As to the kind of experiment: Long-term viability assay (confluence, 14 days). Format: cell-based. As for the experimental part: FIG. 2A and FIG. 2B: Dose response of Compound B (“Cmpd B”) in EGFR mutant NSCLC lines in combination with Compound A (EGF816) (“Cmpd A”) (300 nM) (FIG. 2A: HCC4006 and HCC827 cell lines. FIG. 2B: PC9 and MGH707 cell lines). Cells were treated with fresh drug and imaged for confluence measurement twice per week for two weeks. Cell confluence was used as a surrogate for cell number. It is shown that a Raf-inhibitor in combination with EGF816 slows drug-tolerant cell outgrowth.
Combinations of Compound A and Compound B were further examined in long-term drug combination growth assays. The same EGFR mutant NSCLC cell lines as were used in Example 1 above were treated with EGF816 alone or EGF816 in combination with Compound B across a 5-dose range for 14 days as follows.
PC9 (6000/well), HCC827 (4000/well), HCC4006 (5000/well), and MGH707 (5000/well) cells were plated into 96-well plates and the following day treated with EGF816 (300 nM) +either DMSO or a range of doses of either Compound B (0.03, 0.1, 0.3, 1 and 3 uM) for two weeks. Drug was refreshed twice per week. Cell confluence was used as a surrogate for cell number and was measured by an incucyte zoom at t=0, 4, 7, 10 and 14 days treatment.

The subject of data set [8] is Calu-6 (KRAS Q61K), NCI-H358 (KRAS G12C), Hey-A8 (KRAS G12D, BRAF G464E), SK-MEL-30 xenografts. Description: In vivo tumor xenografts, Compound B.
The test system of data set [9] is EGFR activating and acquired resistance mutants (L858R, ex19del and T790M). Conditions: cited from earlier work.
In data set [10] the test system is EGFR mutant (L858R, ex19del and T790M) cancer models. Description: EGFR mutant cancer models (in vitro and in vivo), Compound A.
The target of data set [11] is T1, wild-type (WT) EGFR (Homo sapiens, UniProt P00533). Description: Inhibition of wild-type EGFR by Compound A. The following applies: at clinically relevant efficacious concentrations.
Data set [12] deals with EGFR-mutant NSCLC. As to the kind of experiment: Previous study of EGF816 at 100 mg and 150 mg daily. The following applies: 100 mg daily compared with 150 mg daily. Format: in vivo, human.
In data set [13] the target is T1, wild-type (WT) EGFR. The following applies: cited from earlier work.
The subject of data set [14] is xenograft models. Description: Xenograft models, Compound A. Format: in vivo.
Data set [15] has as its system advanced non-small cell lung cancer (NSCLC) harboring T790M. The following applies: cited from earlier work.

Structures are written as SMILES.

T1 sequence (P00533 25-1210): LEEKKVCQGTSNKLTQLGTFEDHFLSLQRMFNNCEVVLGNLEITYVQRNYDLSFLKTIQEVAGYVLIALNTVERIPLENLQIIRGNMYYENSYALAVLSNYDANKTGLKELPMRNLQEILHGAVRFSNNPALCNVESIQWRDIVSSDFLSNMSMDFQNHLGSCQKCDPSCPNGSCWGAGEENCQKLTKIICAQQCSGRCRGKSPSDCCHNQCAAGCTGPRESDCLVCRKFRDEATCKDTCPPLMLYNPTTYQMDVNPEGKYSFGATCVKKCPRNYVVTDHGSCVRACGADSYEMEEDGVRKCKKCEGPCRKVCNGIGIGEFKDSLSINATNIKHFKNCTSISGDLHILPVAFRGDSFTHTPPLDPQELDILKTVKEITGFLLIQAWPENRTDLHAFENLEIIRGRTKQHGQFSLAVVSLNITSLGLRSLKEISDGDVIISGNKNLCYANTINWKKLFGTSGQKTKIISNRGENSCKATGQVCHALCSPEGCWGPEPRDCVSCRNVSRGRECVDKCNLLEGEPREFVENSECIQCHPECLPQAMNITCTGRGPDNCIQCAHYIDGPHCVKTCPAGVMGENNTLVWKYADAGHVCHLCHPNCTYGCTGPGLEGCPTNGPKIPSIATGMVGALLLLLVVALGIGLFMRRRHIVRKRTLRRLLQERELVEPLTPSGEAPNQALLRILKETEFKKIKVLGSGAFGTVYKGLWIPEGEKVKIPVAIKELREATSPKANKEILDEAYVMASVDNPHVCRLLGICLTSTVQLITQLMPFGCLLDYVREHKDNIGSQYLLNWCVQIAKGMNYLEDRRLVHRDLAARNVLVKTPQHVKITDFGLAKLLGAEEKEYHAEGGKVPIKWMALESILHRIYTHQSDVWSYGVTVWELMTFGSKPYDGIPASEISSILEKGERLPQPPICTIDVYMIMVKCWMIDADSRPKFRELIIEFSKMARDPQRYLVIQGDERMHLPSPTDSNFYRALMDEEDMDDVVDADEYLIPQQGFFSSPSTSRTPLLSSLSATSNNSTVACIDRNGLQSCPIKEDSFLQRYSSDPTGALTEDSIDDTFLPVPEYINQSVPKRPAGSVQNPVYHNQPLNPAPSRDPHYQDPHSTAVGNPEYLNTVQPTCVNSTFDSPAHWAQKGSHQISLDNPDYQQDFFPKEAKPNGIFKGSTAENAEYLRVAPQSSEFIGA
Chain of BRAF kinase (P15056 whole entry): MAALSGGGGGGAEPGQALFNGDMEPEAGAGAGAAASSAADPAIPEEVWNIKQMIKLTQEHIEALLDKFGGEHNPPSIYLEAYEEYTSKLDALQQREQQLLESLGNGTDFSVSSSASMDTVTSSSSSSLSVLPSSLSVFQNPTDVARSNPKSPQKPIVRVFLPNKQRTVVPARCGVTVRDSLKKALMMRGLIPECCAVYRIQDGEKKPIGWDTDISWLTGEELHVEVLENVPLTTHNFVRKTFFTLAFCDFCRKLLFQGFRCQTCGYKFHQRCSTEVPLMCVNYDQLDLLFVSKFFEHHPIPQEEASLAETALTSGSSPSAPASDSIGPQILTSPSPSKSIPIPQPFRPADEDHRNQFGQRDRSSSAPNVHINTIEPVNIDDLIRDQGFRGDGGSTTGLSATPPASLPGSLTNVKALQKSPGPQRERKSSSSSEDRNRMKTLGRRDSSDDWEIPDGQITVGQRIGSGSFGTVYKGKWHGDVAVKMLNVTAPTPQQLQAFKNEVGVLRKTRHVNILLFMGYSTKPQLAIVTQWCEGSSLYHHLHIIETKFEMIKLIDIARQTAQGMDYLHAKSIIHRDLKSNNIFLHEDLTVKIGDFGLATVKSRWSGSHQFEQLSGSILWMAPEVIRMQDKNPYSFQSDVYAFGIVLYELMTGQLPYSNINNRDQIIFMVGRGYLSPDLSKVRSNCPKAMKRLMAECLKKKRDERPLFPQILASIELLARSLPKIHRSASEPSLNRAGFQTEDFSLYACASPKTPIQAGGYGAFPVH

Consider `Cc1ccc(NC(=O)c2ccnc(C(F)(F)F)c2)cc1-c1cc(OCCO)nc(N2CCOCC2)c1` [Compound B, N-(3-(2-(2-hydroxyethoxy)-6-morpholinopyridin-4-yl)-4-methylphenyl)-2-(trifluoromethyl)isonicotinamide], for which the IC50 is greater than 20000 nM in data set [1], 200 to 1200 nM in [3] and 0.73 nM in data set [5]. In addition, the “number of other kinases whose binding is inhibited to a similar degree” value in data set [2] turned out to be 2. The “cell growth (% Activity, cell-titer glo)” value in data set [4] (Compound B added to 300 nM EGF816, 5 days, HCC4006, HCC827 and PC9) is “enhanced suppression of cell growth”; in data set [4] (Compound B added to 300 nM EGF816, 5 days, MGH707), “less effective”; in data set [4] (Compound B single agent (DMSO), 5 days, all cell lines), “suppressed”. The “sensitization to Compound B by EGF816” value in data set [4] (with 300 nM EGF816 compared to single agent, HCC4006, HCC827 and PC9) is “active at lower doses”. In addition, in data set [6], the CYP3A4/5 inhibition result is listed as “inhibitor of CYP3A4/5”. Also, in data set [7] (Compound B 0.03-3 uM with 300 nM EGF816, 14 days), the “residual outgrowth of EGFR mutant persister cells (cell confluence)” value is reported as “markedly suppressed”. For the same compound, the “response to the combination (cell confluence)” value in [7] (Compound B with 300 nM EGF816, 14 days, MGH707) is “most refractory”. In data set [7] (Compound B with 300 nM EGF816, 14 days, PC9), the “cell number (cell confluence)” value is “more pronounced drop in cell number”. The tumor response entry in data set [8] (KRAS-mutant Calu-6, NCI-H358, Hey-A8 and NRAS-mutant SK-MEL-30 xenografts) is “tumor regression”. Further, in [8] (in all cases), the “dose dependence of anti-tumor effects” value was “dose-dependent”. Further, the “tolerability / body weight” value in [8] (in all cases) is listed as “well tolerated with minimal body weight loss”.

For the compound `Cc1cc(C(=O)Nc2nc3cccc(Cl)c3n2[C@@H]2CCCCN(C(=O)/C=C/CN(C)C)C2)ccn1` [Compound A, (R,E)-N-(7-chloro-1-(1-(4-(dimethylamino)but-2-enoyl)azepan-3-yl)-1H-benzo[d]imidazol-2-yl)-2-methylisonicotinamide], in data set [9], the “inhibition of EGFR mutants” value is recorded as “selectively inhibits”. The “cell growth (% Activity, cell-titer glo)” value in data set [4] (EGF816 alone 300 nM, 5 days, all cell lines) is given as “robust growth suppression”. In addition, the “efficacy in EGFR mutant cancer models” value in [10] was “significant efficacy”. Further, the “WT EGFR inhibition” value in [11] is given as “no indication of WT EGFR inhibition”. Moreover, in data set [12], the overall response rates result is reported as “similar”; the “rates of rash and diarrhoea” value was “lower rates of rash and diarrhoea”. For the same compound, in data set [13], the “effect on wild-type EGFR” value is “sparing”. In [14] (at efficacious doses), the “tolerability / body weight” value is given as “well tolerated with no body weight loss”. In data set [14] (several xenograft models), the anti-tumor efficacy entry is reported as “Dose-dependent anti-tumor efficacy”. For the same compound, in data set [15], the “antitumor activity in patients” value is “durable antitumor activity”. Also, in data set [7] (300 nM EGF816 alone, PC9), the “sensitivity to single agent EGF816” value is “more exquisitely sensitive”.

The record behind these values is US20200237773A1, “THERAPEUTIC COMBINATION OF A THIRD-GENERATION EGFR TYROSINE KINASE INHIBITOR AND A RAF INHIBITOR” (Novartis AG, priority 2017, published 2020).
